Assay [1] relates to KRas G12D-mediated Phosphorylation of ERK. Nature of the assay: Inhibition of KRas G12D-mediated Phosphorylation of ERK in AGS cells. It is filed as cell-based. Conditions: Homo sapiens; AGS cells expressing G12D, 3 hours, phospho-ERK signal normalized to GAPDH; read-out: IC50. As to the method:
AGS cells (ATCC CRL-1739) expressing G12D were grown in DMEM medium supplemented with 10% fetal bovine serum, 10 mM HEPES, and Penicillin/Streptomycin. Cells were plated in tissue culture treated 96 well plates at a density of 40,000 cells/well and allowed to attach for 12-14 hours. Diluted compounds were then added in a final concentration of 0.5% DMSO. After 3 hours, the medium was removed, 150 μl of 4.0% formaldehyde was added and the plates incubated at room temperature for 20 minutes. The plates were washed with PBS, and permeabilized with 150 μL of ice cold 100% methanol for 10 minutes. Non-specific antibody binding to the plates was blocked using 100 μL Licor blocking buffer (Li-Cor Biotechnology, Lincoln NE) for 1 hour at room temperature.
The amount of phospho-ERK was determined using an antibody specific for the phosphorylated form of ERK and compared to the amount of GAPDH. Primary antibodies used for the detection were added as follows: Phospho-ERK(Cell Signaling cs-9101) diluted 1:500 and GAPDH (Millipore MAB374) diluted 1:5000 in Licor block+0.05% Tween 20. The plates were incubated for 2 hours at room temperature. The plates were washed with PBS+0.05% Tween 20.
Secondary antibodies used to visualize primary antibodies were added as follows: Anti-rabbit-680 diluted 1:1000 and Anti-mouse-800 diluted 1:1000 both in Licor block+0.05% Tween20, and were incubated for 1 hour at room temperature. The plates were washed with PBS+0.05% Tween 20. A 100 μl aliquot of PBS was added to each well and the plates were read on a Li-Cor Odyssey CLX plate reader.
The phospho-ERK(Thr202/Tyr204 signal was normalized to the GAPDH signal for each well and percent of DMSO control values were calculated. IC50 values were generated using a 4-parameter fit of the dose response curve

The target in the next assay is KRas G12D (Homo sapiens, UniProt P01116, G12D). Kind of assay: KRas G12D Binding Assay (TR-FRET displacement of labeled tracer). Set-up: corresponding to amino acids 1:169, produced at Array BioPharma Inc; biotin (biotinylated). Conditions: TR-FRET displacement of Cy5 labelled tracer, Biotinylated GDP-loaded KRAS G12D (amino acids 1:169), 60 minute incubation at 22° C. On the procedure: This Example illustrates that exemplary compounds of the present invention bind to KRas G12D and are capable of displacing a labeled tracer ligand occupying the KRas G12D binding site. The ability of a compound to bind to KRAS G12D was measured using a TR-FRET displacement assay. Biotinylated GDP-loaded recombinant human KRAS G12D (corresponding to amino acids 1:169, produced at Array BioPharma Inc.) was incubated with a custom-made Cy5 labelled tracer, europium labelled streptavidin and compound (2% DMSO final) in buffer (50 mM HEPES [pH 7.5], 5 mM MgCl2, 0.005% Tween-20 & 1 mM DTT). After a 60 minute incubation at 22° C., the reaction was measured using a PerkinElmer EnVision multimode plate reader via TR-FRET dual wavelength detection, and the percent of control (POC) calculated using a ratiometric emission factor. […] The POC values were fit to a 4-parameter logistic curve and the IC50 value was determined as the concentration where the curve crosses 50 POC.
Chain of KRas G12D (P01116 1-169 isoform P01116-2 G12D): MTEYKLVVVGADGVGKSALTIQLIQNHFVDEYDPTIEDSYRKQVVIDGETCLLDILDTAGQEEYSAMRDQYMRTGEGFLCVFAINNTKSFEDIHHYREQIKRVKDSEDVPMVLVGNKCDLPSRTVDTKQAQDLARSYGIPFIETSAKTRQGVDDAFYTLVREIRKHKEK
A general note: Time-resolved FRET reads energy transfer from a long-lived donor to a nearby acceptor.

By IC50 is commonly meant the concentration needed to halve the response being measured. As to `Oc1cc(-c2ncc3c(NC4CNC4)nc(OCC45CCCN4CCC5)nc3c2F)c2ccccc2c1` [Example 18, 4-(4-(azetidin-3-ylamino)-8-fluoro-2-((tetrahydro-1H-pyrrolizin-7a(5H)-yl)methoxy)pyrido[4,3-d]pyrimidin-7-yl)naphthalen-2-ol], the figures for the half-inhibitory concentration (IC50) (in assay [1]; at KRas G12D) were > 16700 nM and 46.5 nM, respectively.
The matching figures for `C#Cc1c(F)ccc2cccc(-c3ncc4c(NCC5(N(C)C)CCC5)nc(OCC56CCCN5CCC6)nc4c3F)c12` [Example 56, N-((1-(dimethylamino)cyclobutyl)methyl)-7-(8-ethynyl-7-fluoronaphthalen-1-yl)-8-fluoro-2-((hexahydro-1H-pyrrolizin-7a-yl)methoxy)pyrido[4,3-d]pyrimidin-4-amine]: 350 nM and 2.6 nM.
In the same order, the values of `CCc1cccc2cccc(-c3ncc4c(NCC5(N(C)C)CCC5)nc(OC[C@@]56CCCN5C[C@H](F)C6)nc4c3F)c12` [Example 21, N-((1-(dimethylamino)cyclobutyl)methyl)-7-(8-ethylnaphthalen-1-yl)-8-fluoro-2-(((2R,7aS)-2-fluorotetrahydro-1H-pyrrolizin-7a(5H)-yl)methoxy)pyrido[4,3-d]pyrimidin-4-amine] are > 16700 nM and 59.2 nM.
In the same order, the values of `CN[C@H]1C[C@@H](Nc2nc(OCC34CCCN3CCC4)nc3c(F)c(-c4cc(O)cc5ccccc45)ncc23)C1` [Example 17, 4-(8-fluoro-4-(((1s,3s)-3-(methylamino)cyclobutyl)amino)-2-((tetrahydro-1H-pyrrolizin-7a(5H)-yl)methoxy)pyrido[4,3-d]pyrimidin-7-yl)naphthalen-2-ol bis(2,2,2-trifluoroacetate)] are > 16700 nM and 80.9 nM.
For the compound `CC(C)c1ccccc1-c1ncc2c(NCC3(N(C)C)CCC3)nc(OC[C@@]34CCCN3C[C@H](F)C4)nc2c1F` [Example 10, N-((1-(dimethylamino)cyclobutyl)methyl)-8-fluoro-2-(((2R,7aS)-2-fluorotetrahydro-1H-pyrrolizin-7a(5H)-yl)methoxy)-7-(2-isopropylphenyl)pyrido[4,3-d]pyrimidin-4-amine bis(2,2,2-trifluoroacetate)], the IC50 on KRas G12D was determined as 3720 nM.
`CC#Cc1cccc2cccc(-c3ncc4c(NCC5(N(C)C)CCC5)nc(OC[C@@]56CCCN5C[C@H](F)C6)nc4c3F)c12` [Example 27, N-((1-(dimethylamino)cyclobutyl)methyl)-8-fluoro-2-(((2R,7aS)-2-fluorotetrahydro-1H-pyrrolizin-7a(5H)-yl)methoxy)-7-(8-(prop-1-yn-1-yl)naphthalen-1-yl)pyrido[4,3-d]pyrimidin-4-amine] showed an IC50 on KRas G12D of 1880 nM.
Same read-out and setting: as for `CN(C)C1(CNc2nc(OCC34CCCN3CCC4)nc3c(F)c(-c4cccc5cccc(F)c45)ncc23)CCC1` [Example 14, N-((1-(dimethylamino)cyclobutyl)methyl)-8-fluoro-7-(8-fluoronaphthalen-1-yl)-2-((hexahydro-1H-pyrrolizin-7a-yl)methoxy)pyrido[4,3-d]pyrimidin-4-amine], the figure is 306 nM; as for `CN1CCC[C@@H]1COc1nc(NCC2(N(C)C)CCC2)c2cnc(-c3cc(O)cc4ccccc34)c(F)c2n1` [Example 32], 381 nM; as for `CN(C)C1(CNc2nc(OCC34CCCN3CCC4)nc3c(F)c(-c4cccc(Cl)c4C4CC4)ncc23)CCC1` [Example 16, 7-(3-chloro-2-cyclopropylphenyl)-N-((1-(dimethylamino)cyclobutyl)methyl)-8-fluoro-2-((tetrahydro-1H-pyrrolizin-7a(5H)-yl)methoxy)pyrido[4,3-d]pyrimidin-4-amine], 146 nM.

Source of the values: patent US12655160B2, “KRAS G12D inhibitors” (Mirati Therapeutics, Inc., priority 2020, dated 2026).
